Drawing on patent US6281356A, “Substituted pyrroles” (Hoffmann-La Roche Inc., priority 2000, dated 2001), this text covers IC50 for 31 compounds.

In the test the test system is epithelial breast carcinoma cell line (MDAMB-435). The test can be described thus: Antiproliferative activity (growth inhibition, MTT), epithelial breast carcinoma cell line MDAMB-435. It counts as cell-based. The following applies: Homo sapiens, MDA-MB-435, 120 h, 5 days post drug addition, 0.1% DMSO, read-out: IC50 (growth inhibition of MDAMB-435 cells). On the procedure:
The epithelial breast carcinoma cell line (MDAMB-435) was purchased from ATCC (American Type Cell Culture Collection) and was grown in culture medium as recommended by ATCC. For analysis of the effect of various compounds of formula I on the growth of these cells, the cells were plated at a concentration of 1500 cells/well in a 96 well tissue culture plate ("test plate"). The day after the cells were plated, the compounds to be analyzed were dissolved in 100% DMSO (dimethyl sulfoxide) to yield at 10 mM stock solution. Each compound was diluted in H2 O to 1 mM and was added to triplicate wells in the first row of a 96 well master plate containing medium to yield a final concentration of 40 μM. The compounds were then serially diluted in medium in the "master plate". The diluted compound(s) were then transferred to test plates containing cells. A row of vehicle "control cells" received DMSO. The final concentration of DMSO in each well was 0.1%. 5 days post drug addition, the plate was analyzed as described below.
MTT (3-(4-5 methyl thiazole-2-yl)-2,5-diphenyl tetrazolium bromide; thiazolyl blue) was added to each well to yield a final concentration of 1 mg/ml. The plate was then incubated at 37° C. for 21/2-3 hours. The MTT-containing medium was then removed and 50 μl of 100% ethanol was added to each well to dissolve the formazan. The absorbences were then read using an automated plate reader (Bio-tek microplate reader). IC50 s were calculated using the Reed and Munsch equation, see Am. J. Hygiene Vol. 27 pgs. 493-497,1938.
On to `Cn1cc(C2=C(c3cn(C)c4cc(-n5ccnc5)ccc34)C(=O)NC2=O)c2ccc(Br)cc21` [Example 10a, 3-(6-Bromo-1-methyl-1H-indol-3-yl)-4-(6-imidazol-1-yl-1-methyl-1H-indol-3-yl)-pyrrole-2,5-dione], for which the IC50 (in general, the concentration that gives 50% inhibition) was 25 nM.
With `Cn1cc(C2=C(c3cn(C)c4cc(N5CCCC5)ccc34)C(=O)NC2=O)c2ccccc21` [Example 12j, 3-(1-Methyl-1H-indol-3-yl)-4-(1-methyl-6-pyrrolidin-1-yl-1H-indol-3-yl)pyrrole-2,5-dione], the concentration for half-maximal inhibition (IC50) came out at 60 nM.
Consider `Cn1cc(C2=C(c3cn(C)c4cc([N+](=O)[O-])ccc34)C(=O)NC2=O)c2ccc(-c3ncc[nH]3)cc21` [Example 2o, 3-[6-(1H-Imidazol-2-yl)-1-methyl-1H-indol-3-yl]-4-(1-methyl-6-nitro-1H-indol-3-yl)-pyrrole-2,5-dione], for which the IC50 is 40 nM.
Turning to `Cn1nccc1-c1ccc2c(C3=C(c4cn(C)c5cc([N+](=O)[O-])ccc45)C(=O)NC3=O)cn(C)c2c1` [Example 2j, 3-[1-Methyl-6-(2-methyl-2H-pyrazol-3-yl)-1H-indol-3-yl]-4-(1-methyl-6-nitro-1H-indol-3-yl)pyrrole-2,5-dione], the IC50 came out at 20 nM.
Take `Cn1cncc1-c1ccc2c(C3=C(c4cn(C)c5ccccc45)C(=O)NC3=O)cn(C)c2c1` [Example 2a, 3-(1-Methyl-1H-indol-3-yl)-4-[1-methyl-6-(3-methyl-3H-imidazol-4-yl)-1H-indol-3-yl]pyrrole-2,5-dione]: the IC50 was determined as 50 nM.
The value for `Cn1cc(C2=C(c3cn(C)c4cc(-c5nccs5)ccc34)C(=O)NC2=O)c2ccccc21` [Example 4a, 3-(1-Methyl-1H-indol-3-yl)-4-(1-methyl-6-thiazol-2-yl-1H-indol-3-yl)pyrrole-2,5-dione] was 24 nM.
On to `Cn1cncc1-c1ccc2c(C3=C(c4cn(C)c5cc([N+](=O)[O-])ccc45)C(=O)NC3=O)cn(C)c2c1` [Example 1, 3-[1-Methyl-6-(3-methyl-3H-imidazol-4-yl)-1H-indol-3-yl]-4-(1-methyl-6-nitro-1H-indol-3-yl)-pyrrole-2,5-dione], for which the IC50 was found to be 5 nM.
With `Cn1cc(C2=C(c3cn(C)c4cc(N5CCOCC5)ccc34)C(=O)NC2=O)c2ccccc21` [Example 11, 3-(1-Methyl-1H-indol-3-yl)-4-(1-methyl-6-morpholin-4-yl-1H-indol-3-yl)pyrrole 2,5-dione], the IC50 was 20 nM.
The figure for `Cn1cc(C2=C(c3cn(C)c4cc(-n5ccnc5)ccc34)C(=O)NC2=O)c2ccccc21` [Example 7, 3-(6-imidazol-1-yl-1-methyl-1H-indol-3-yl)-4-(1-methyl-1H-indol-3-yl)-pyrrole-2,5-dione] is 60 nM.
Regarding `COCn1cc(C2=C(c3cn(C)c4cc(F)ccc34)C(=O)NC2=O)c2ccc(N3CCOCC3)cc21` [Example 12m, 3-(6-Fluoro-1-methyl-1H-indol-3-yl)-4-(1-methoxymethyl-6-morpholin-4-yl-1H-indol-3-yl)pyrrole-2,5-dione], the IC50 came out at 170 nM.
`Cn1cc(C2=C(c3cn(C)c4cc(N5CCOCC5)ccc34)C(=O)NC2=O)c2ccc(F)cc21` [Example 14b, 3-(6-Fluoro-1-methyl-1H-indol-3-yl)-4-(1-methyl-6-morpholin-4-yl-1H-indol-3-yl)pyrrole-2,5-dione]: the IC50 amounted to 30 nM.
The figure for `COc1ccc2c(C3=C(c4cn(C)c5cc(-n6ccnc6)ccc45)C(=O)NC3=O)cn(C)c2c1` [Example 9, 3-(6-Imidazol-1-yl-1-methyl-1H-indol-3-yl)-4-(6-methoxy-1-methyl-1H-indol-3-yl)-pyrrole-2,5-dione] is 60 nM.
As to `COc1ccc2c(C3=C(c4cn(C)c5cc(N6CCCC6)ccc45)C(=O)NC3=O)cn(C)c2c1` [Example 14g, 3-(6-Methoxy-1-methyl-1H-indol-3-yl)-4-(1-methyl-6-pyrrolidin-1-yl-1H-indol-3-yl)pyrrole-2,5-dione], the IC50 was 40 nM.
Turning to `Cn1cc(C2=C(c3cn(C)c4cc([N+](=O)[O-])ccc34)C(=O)NC2=O)c2ccc(-n3ccnc3)cc21` [Example 8a, 3-(6-Imidazol-1-yl-1-methyl-1H-indol-3-yl)-4-(1-methyl-6-nitro-1H-indol-3-yl)-pyrrole-2,5-dione], the IC50 was 30 nM.
As for `Cn1cc(C2=C(c3cn(C)c4cc(N5CCCC5)ccc34)C(=O)NC2=O)c2ccc(C#N)cc21` [Example 15, 1-Methyl-3-[4-(1-methyl-6-pyrrolidin-1-yl-1H-indol-3-yl)-2,5-dioxo-2,5dihydro-1H-pyrrole-3-yl]-1H-indole-6-carbonitrile], the IC50 was under 10 nM.
On to `Cc1nccn1-c1ccc2c(C3=C(c4cn(C)c5cc([N+](=O)[O-])ccc45)C(=O)NC3=O)cn(C)c2c1` [Example 8b, 3-[1-Methyl-6-(2-methyl-imidazol-1-yl)-1H-indol-3-yl]-4-(1-methyl-6-nitro-1H-indol-3-yl)-pyrrole-2,5-dione], for which the IC50 turned out to be 250 nM.
For `Cn1cc(C2=C(c3cn(C)c4cc(N5CCCC5)ccc34)C(=O)NC2=O)c2ccc(Br)cc21` [Example 14f, 3-(6-Bromo-1-methyl-1H-indol-3-yl)-4-(1-methyl-6-pyrrolidin-1-yl-1H-indol-3-yl)pyrrole-2,5-dione], the IC50 was 5 nM.
With `Cn1cc(C2=C(c3cn(C)c4cc(-n5cccn5)ccc34)C(=O)NC2=O)c2ccc(Br)cc21` [Example 8e, 3-(6-Bromo-1-methyl-1H-indol-3-yl)-4-(1-methyl-6-pyrazol-1-yl-1H-indol-3-yl)pyrrole-2,5-dione], the IC50 is 25 nM.
Consider `CCn1ccnc1-c1ccc2c(C3=C(c4cn(C)c5cc([N+](=O)[O-])ccc45)C(=O)NC3=O)cn(C)c2c1` [Example 2d], for which the IC50 came out at 120 nM.
As for `Cn1cc(C2=C(c3c[nH]c4ccccc34)C(=O)NC2=O)c2ccc(N3CCCC3)cc21` [Example 12i, 3-(1H-indol-3-yl)-4-(1-methyl-6-pyrrolidin-1-yl-1H-indol-3-yl)-pyrrole-2,5-dione], the IC50 came to 80 nM.
The figure for `Cn1cc(C2=C(c3cn(C)c4cc(-c5ccco5)ccc34)C(=O)NC2=O)c2ccccc21` [Example 2g, 3-(6-Furan-2-yl-1-methyl-1H-indol-3-yl)-4-(1-methyl-1H-indol-3-yl)pyrrole-2,5-dione] is 20 nM.
Regarding `Cn1cc(C2=C(c3cn(C)c4cc(N5CCCC5)ccc34)C(=O)NC2=O)c2ccc(Cl)cc21` [Example 14i, 3-(6-Chloro-1-methyl-1H-indol-3-yl)-4-(1-methyl-6-pyrrolidin-1-yl-1H-indol-3-yl)pyrrole-2,5-dione], the IC50 worked out at 10 nM.
For the compound `Cn1cc(C2=C(c3cn(C)c4cc(-n5cccn5)ccc34)C(=O)NC2=O)c2ccccc21` [Example 8d, 3(1-Methyl-1H-indol-3-yl)-4-(1-methyl-6-pyrazol-1-yl-1H-indol-3-yl)pyrrole-2,5-dione], the IC50 came out at 30 nM.
`COc1ccc2c(C3=C(c4cn(C)c5cc(N6CCOCC6)ccc45)C(=O)NC3=O)cn(C)c2c1` [Example 14a, 3-(6-Methoxy-1-methyl-1H-indol-3-yl)-4-(1-methyl-6-morpholin-4-yl-1H-indol-3-yl)pyrrole-2,5-dione]: the IC50 is 20 nM.
`Cn1cc(C2=C(c3cn(C)c4cc(-c5ccns5)ccc34)C(=O)NC2=O)c2ccccc21` [Example 2n, 3-(6-Isothiazol-5-yl-1-methyl-1H-indol-3-yl)-4-(1-methyl-1H-indol-3-yl)-pyrrole-2,5-dione]: the IC50 worked out at 40 nM.
Turning to `Cn1cc(C2=C(c3cn(C)c4cc([N+](=O)[O-])ccc34)C(=O)NC2=O)c2ccc(-c3ccsc3)cc21` [Example 6, 3-(1-methyl-6-nitro-1H-indol-3-yl)-4-(1-methyl-6-thiophen-3-yl-1H-indol-3-yl)pyrrole-2,5-dione], the IC50 is 40 nM.
Consider `Cn1cc(C2=C(c3cn(C)c4cc(-c5cccs5)ccc34)C(=O)NC2=O)c2ccccc21` [Example 3, 3-(1-Methyl-1H-indol-3-yl)-4-(1-methyl-6-thiophen-2-yl-1H-indol-3-yl)pyrrole-2,5 dione], for which the IC50 is 40 nM.
The value for `Cn1cc(C2=C(c3cn(C)c4cc(-c5cncnc5)ccc34)C(=O)NC2=O)c2ccccc21` [Example 19, 3-(1-Methyl-1-indol-3-yl)-4-(1-methyl-6-pyrimidin-5-yl-1H-indol-3-yl)pyrrole-2,5-dione] was 80 nM; that for `Cn1cc(C2=C(c3c[nH]c4ccccc34)C(=O)NC2=O)c2ccc(N3CCOCC3)cc21` [Example 12c, 3-(1H-Indol-3-yl)-4-(1-methyl-6-morpholin-4-yl-1H-indol-3-yl)pyrrole-2,5-dione] was 70 nM; that for `Cn1cc(C2=C(c3cn(C)c4cc([N+](=O)[O-])ccc34)C(=O)NC2=O)c2ccc(-c3cncnc3)cc21` [Example 18, 3-(1-Methyl-6-nitro-1H-indol-3-yl)-4-(1-methyl-6-pyrimidin-5-yl-1H-indol-3-yl)pyrrole-2,5-dione] was 50 nM.
As to `Cn1cc(C2=C(c3cn(C)c4cc(C(F)(F)F)ccc34)C(=O)NC2=O)c2ccc(N3CCOCC3)cc21` [Example 14e, 3-(1-Methyl-6-morpholin-4-yl-1H-indol-3-yl)-4-(1-methyl-6-trifluoromethyl-1H-indol-3-yl)pyrrole-2,5-dione], the IC50 was 50 nM.
